According to patent US20240122974A1, “TREATMENT OF MYOPIA” (University of Utah Research Foundation, priority 2021, published 2024):
Read-outs that look alike come from different tables or passages of the source.

Legend:
lysyl oxidase (LOX) [1] = target: T1, lysyl oxidase (LOX) (Homo sapiens, UniProt P28300)
Description: To examine LOX activity in normal corneal cells with copper perchlorate and to compare activity with copper sulfate, cultured corneal stroma cells from normal corneas (n=3 each) in 10% fetal bovine serum (FBS) DMEM were either exposed to copper sulfate or copper perchlorate in BSS then filtered through a 0.25 μm filter. Conditioned culture medium underwent a peroxidase-coupled fluorometric activity assay for LOX using Amplex red. As a parallel assay, we added 500 uM aminopropionitrile (BAPN) which can diminish LOX activity completely. The fluorescence of oxidized Amplex red was recorded every 10 minutes using fluorescence plate reader. After subtracting the background fluorescence, the fluorescence intensity was plotted against the incubation time (FIG. 1).
Target sequence in this assay (P28300 169-417): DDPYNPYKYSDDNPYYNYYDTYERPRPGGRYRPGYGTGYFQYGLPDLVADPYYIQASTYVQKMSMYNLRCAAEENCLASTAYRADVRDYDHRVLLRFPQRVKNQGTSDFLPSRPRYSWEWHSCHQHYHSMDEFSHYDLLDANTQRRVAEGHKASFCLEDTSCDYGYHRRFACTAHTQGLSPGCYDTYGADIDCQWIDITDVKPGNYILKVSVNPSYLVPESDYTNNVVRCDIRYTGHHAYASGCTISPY

[2] = test system: spontaneous myopic albino guinea pigs; assay: Spontaneous myopic progression in albino guinea pig pups; details: 0.22 mg/mL twice a day
Description: Spontaneous myopic albino guinea pigs were used as a model of pediatric myopia. […] Pups of albino guinea pigs were used as a pediatric model starting at age 4-7 days. In this group of n=5 pups, all left eyes were untreated (internal control). The other eye (right eye) was treated with 0.22 mg/mL copper perchlorate hexahydrate twice a day. Treatment started at approximately 1 week of age and continued for approximately 2 months. Measurements were taken between 5-7 days of age (baseline-no treatment) and then biweekly. We examined refractive error by streak retinoscopy after dilation, and axial length by Lenstar biometry (Haag-Streit). Cycloplegic refractive error and cornea inflammation was measured by a masked pediatric ophthalmologist.

[3] = test system: genetic model of guinea pig myopia; assay: Genetic model of guinea pig myopia, 0.35 mg/ml eye drops twice a day
Description: Copper perchlorate was administered at 0.35 mg/ml to guinea pigs.

[4] = test system: genetic model of guinea pig myopia; details: 0.22 mg/ml once a day
Description: 0.22 mg/ml copper perchlorate was administered once a day for approximately 3 months to right eye only. The cycloplegic refraction was measured biweekly by a masked pediatric ophthalmologist.

[5] = test system: sclera of guinea pig pups; details: 0.08 mg/mL copper perchlorate hexahydrate eye drops twice a day, 6-8 weeks, n=5; untreated sclera 3.9×10^−4; p=0.036
Description: Lysyl oxidase converts lysine to allysine, and conjugates it to lysine or hydroxylysine spontaneously, becoming lysinonorleucine (LNL), an established biomarker of collagen crosslinking. […] After 6 weeks the scleras were dissected and analyzed for LNL content using mass spectroscopy (LC-MS). Semi-quantitative mass spectral analysis was performed using a Sciex 6500 Q-Trap (Sciex, Framingham, MA).

[6] = test system: sclera of guinea pig pups; details: 0.08 mg/mL copper perchlorate hexahydrate eye drops twice a day, 8 weeks, n=3, vs untreated sclera, FIG. 3
Description: After eight weeks the sclera was dissected for creep compliance testing. Compliance was tested using an Instrong 5943 Mechanical Testing system with custom grips and a 5 N Futek load cell. Each of the six specimens were loaded to 0.005 kgf, corresponding to an equivalent pressure of 12.0-16.6 mmHg depending on specimen dimensions.

lysyl oxidase (LOX) [7] = target: T1, lysyl oxidase (LOX); details: normal sclera cells, FIG. 8
Target sequence in this assay (P28300 169-417, species assumed): as the sequence (P28300 169-417) above

In the case of `O.O.O.O.O.O.[Cu+2].[O-][Cl+3]([O-])([O-])[O-].[O-][Cl+3]([O-])([O-])[O-]` [copper perchlorate, copper (II) perchlorate hexahydrate], the “LOX activity compared with the same molar concentration of copper sulfate” value (lysyl oxidase (LOX) [1]; concentrations as low as 100 nM) is reported as “increased LOX activity more than the same molar concentration of copper sulfate”, the “induction of LOX activity compared with copper sulfate” value (lysyl oxidase (LOX) [1]; keratoconic human cornea stroma cells, concentration as low as 100 nM, FIG. 1B) is reported as “higher induction of LOX activity than copper sulfate” and the LOX enzyme activity (lysyl oxidase (LOX) [1]; normal corneal stroma cells, conditioned culture medium, FIG. 1a) is reported as “dramatically increased LOX enzyme activity in a dose response manner”. The “axial length, treated eye (OD) compared to control eye (OS)” value ([2]; FIG. 5) was “trend of reducing”, the “vitreous chamber depth, treated eye (OD) compared to control eye (OS)” value ([2]; FIG. 5) was “trend of reducing” and the “clinical observations of toxicity or discoloration of corneas” value ([2]; about 2 months, topical to right eye) was “no toxicity or discoloration”. The “slowing of myopic progression in refractive error” value ([2]; within 9 weeks of treatment, treated vs control eye, n=5) was 48%, the “myopia at the end of the experiment, treated versus control eyes” value ([3]; n=5) was “significantly less myopic” and the “axial elongation, treated versus control eye” value ([3]; n=5, p<0.05) was “significantly reduced”. The “vitreous chamber depth elongation, treated versus control eye” value ([3]; n=5, p<0.05) was “significantly reduced”, the “more myopia developed in untreated left eyes than in treated right eyes (change from baseline)” value ([4]; Day 81) was 2.27 diopters and the “slope analysis: refractive error decrease, untreated left eye more than treated right eye” value ([4]; about 3 months, right eye only, p=0.0189) was 0.027(sd=0.011) per day. For the same molecule, the “LNL response in treated sclera” value [5] was 0.00069 µg/mg, the scleral creep compliance [6] was “decreased creep compliance” and the LOX enzyme activity (lysyl oxidase (LOX) [7]) was “dramatically increased LOX enzyme activity in a dose response manner”.
